PubChem BioAssay AID2060910 (Molecular Pharmacology Branch, DTP, NCI, 2025)
One block for each compound: values may come before it.

Test system: 242566-281-R-J2-PDC complex spheroid viability
Test: Anticancer human tumor 242566-281-R-J2-PDC patient-derived pancreatic carcinoma cell line growth inhibition [RAS]
Details: for viability, T/C: stronger effect = lower value
Summary of the method: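 Multi-cell-type spheroids: tumor cells plus HUVEC endothelial cells and mesenchymal stem cells. RAS-pathway inhibitors were combined with targeted agents, each dosed in half-log steps down from clinical Cmax, or from 10 microM when Cmax was unknown.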
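Also: spheroids exposed to compound for 7 days before readout.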
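For viability, T/C in this document: 100% = DMSO vehicle control wells.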

IC50 (curve of first compound, second compound 0.0316 µM): > 10 µM
IC50 (curve of first compound, second compound 0.1 µM): > 10 µM
IC50 (curve of first compound, second compound 0.316 µM): > 10 µM
IC50 (curve of first compound, second compound 1 µM): > 10 µM
IC50 (curve of first compound, second compound 3.16 µM): > 10 µM
IC50 (curve of first compound, second compound 10 µM): > 10 µM
SMILES: C[C@@H](NC(=O)c1ncnc(N)c1Cl)c1ncc(C(=O)Nc2cc(C(F)(F)F)c(Cl)cn2)s1 + C#Cc1c(F)ccc2cc(O)cc(-c3ncc4c(N5CC6CCC(C5)N6)nc(OCC56CCCN5CC(F)C6)nc4c3F)c12
viability, T/C (second compound 0.0316 µM, first compound 0.0316 µM): 93.3%
viability, T/C (second compound 0.0316 µM, first compound 0.1 µM): 136%
viability, T/C (second compound 0.0316 µM, first compound 0.316 µM): 93.4%
viability, T/C (second compound 0.0316 µM, first compound 1 µM): 85.8%
viability, T/C (second compound 0.0316 µM, first compound 3.16 µM): 97.9%
viability, T/C (second compound 0.0316 µM, first compound 10 µM): 95.3%
viability, T/C (second compound 0.1 µM, first compound 0.0316 µM): 91.3%
viability, T/C (second compound 0.1 µM, first compound 0.1 µM): 102%
viability, T/C (second compound 0.1 µM, first compound 0.316 µM): 90.9%
viability, T/C (second compound 0.1 µM, first compound 1 µM): 88.4%
viability, T/C (second compound 0.1 µM, first compound 3.16 µM): 69.9%
viability, T/C (second compound 0.1 µM, first compound 10 µM): 88.8%
viability, T/C (second compound 0.316 µM, first compound 0.0316 µM): 75.9%
viability, T/C (second compound 0.316 µM, first compound 0.1 µM): 84.1%
viability, T/C (second compound 0.316 µM, first compound 0.316 µM): 60.8%
viability, T/C (second compound 0.316 µM, first compound 1 µM): 75.4%
viability, T/C (second compound 0.316 µM, first compound 3.16 µM): 68.1%
viability, T/C (second compound 0.316 µM, first compound 10 µM): 78.4%
viability, T/C (second compound 1 µM, first compound 0.0316 µM): 67.2%
viability, T/C (second compound 1 µM, first compound 0.1 µM): 74.5%
viability, T/C (second compound 1 µM, first compound 0.316 µM): 66.6%
viability, T/C (second compound 1 µM, first compound 1 µM): 62.1%
viability, T/C (second compound 1 µM, first compound 3.16 µM): 64.2%
viability, T/C (second compound 1 µM, first compound 10 µM): 71.4%
viability, T/C (second compound 3.16 µM, first compound 0.0316 µM): 63.4%
viability, T/C (second compound 3.16 µM, first compound 0.1 µM): 66.7%
viability, T/C (second compound 3.16 µM, first compound 0.316 µM): 63.7%
viability, T/C (second compound 3.16 µM, first compound 1 µM): 53.9%
viability, T/C (second compound 3.16 µM, first compound 3.16 µM): 62.2%
viability, T/C (second compound 3.16 µM, first compound 10 µM): 66.2%
viability, T/C (second compound 10 µM, first compound 0.0316 µM): 63.3%
viability, T/C (second compound 10 µM, first compound 0.1 µM): 64%
viability, T/C (second compound 10 µM, first compound 0.316 µM): 46.3%
viability, T/C (second compound 10 µM, first compound 1 µM): 55%
viability, T/C (second compound 10 µM, first compound 3.16 µM): 60.5%
viability, T/C (second compound 10 µM, first compound 10 µM): 63.8%

IC50 (curve of compound): 89.6 nM [middle of 4 runs]
SMILES: Nc1ccn(C2OC(CO)C(O)C2(F)F)c(=O)n1 (configuration not stated)
viability, T/C (compound 0.00316 µM): 102% [middle of 4 runs]
viability, T/C (compound 0.01 µM): 103% [middle of 4 runs]
viability, T/C (compound 0.0316 µM): 74.9% [middle of 4 runs]
viability, T/C (compound 0.1 µM): 49.9% [middle of 4 runs]
viability, T/C (compound 0.316 µM): 23.4% [middle of 4 runs]
viability, T/C (compound 1 µM): 15.6% [middle of 4 runs]

IC50 (curve of compound): 1.41 µM [middle of 4 runs]
SMILES: CC(Nc1ccc2c(c1)OCCn1cc(N3C(=O)OCC3C(F)F)nc1-2)C(N)=O (configuration not stated)
viability, T/C (compound 0.0316 µM): 99.1% [middle of 4 runs]
viability, T/C (compound 0.1 µM): 99.7% [middle of 4 runs]
viability, T/C (compound 1 µM): 57.4% [middle of 4 runs]
viability, T/C (compound 3.16 µM): 37.6% [middle of 4 runs]
viability, T/C (compound 10 µM): 28.8% [middle of 4 runs]

IC50 (curve of first compound, second compound 0.000949 µM): 6.35 µM
IC50 (curve of first compound, second compound 0.003 µM): 4.93 µM
IC50 (curve of first compound, second compound 0.00949 µM): 0.0316 µM
IC50 (curve of first compound, second compound 0.03 µM): < 0.0316 µM
IC50 (curve of first compound, second compound 0.0949 µM): < 0.0316 µM
IC50 (curve of first compound, second compound 0.3 µM): < 0.0316 µM
SMILES: CC1(O)CCCC1n1c(=O)c(C(F)F)cc2cnc(NC3CCN(S(C)(=O)=O)CC3)nc21 (configuration not stated) + CCn1c(-c2cc(N3CCN(C)CC3)cnc2C(C)OC)c2c3cc(ccc31)-c1csc(n1)CC(NC(=O)C1CC1C)C(=O)N1CCCC(N1)C(=O)OCC(C)(C)C2
viability, T/C (second compound 0.000949 µM, first compound 0.0316 µM): 85.7%
viability, T/C (second compound 0.000949 µM, first compound 0.1 µM): 84%
viability, T/C (second compound 0.000949 µM, first compound 0.316 µM): 72.8%
viability, T/C (second compound 0.000949 µM, first compound 1 µM): 98.9%
viability, T/C (second compound 0.000949 µM, first compound 3.16 µM): 98.1%
viability, T/C (second compound 0.000949 µM, first compound 10 µM): 25.2%
viability, T/C (second compound 0.003 µM, first compound 0.0316 µM): 73%
viability, T/C (second compound 0.003 µM, first compound 0.1 µM): 58.6%
viability, T/C (second compound 0.003 µM, first compound 0.316 µM): 64.7%
viability, T/C (second compound 0.003 µM, first compound 1 µM): 73.3%
viability, T/C (second compound 0.003 µM, first compound 3.16 µM): 82.5%
viability, T/C (second compound 0.003 µM, first compound 10 µM): 17.2%
viability, T/C (second compound 0.00949 µM, first compound 0.0316 µM): 43.7%
viability, T/C (second compound 0.00949 µM, first compound 0.1 µM): 42.2%
viability, T/C (second compound 0.00949 µM, first compound 0.316 µM): 49.5%
viability, T/C (second compound 0.00949 µM, first compound 1 µM): 51.4%
viability, T/C (second compound 0.00949 µM, first compound 3.16 µM): 53.2%
viability, T/C (second compound 0.00949 µM, first compound 10 µM): 14.7%
viability, T/C (second compound 0.03 µM, first compound 0.0316 µM): 25.7%
viability, T/C (second compound 0.03 µM, first compound 0.1 µM): 28.7%
viability, T/C (second compound 0.03 µM, first compound 0.316 µM): 30.8%
viability, T/C (second compound 0.03 µM, first compound 1 µM): 35.6%
viability, T/C (second compound 0.03 µM, first compound 3.16 µM): 30.7%
viability, T/C (second compound 0.03 µM, first compound 10 µM): 18.1%
viability, T/C (second compound 0.0949 µM, first compound 0.0316 µM): 23.1%
viability, T/C (second compound 0.0949 µM, first compound 0.1 µM): 23.8%
viability, T/C (second compound 0.0949 µM, first compound 0.316 µM): 22%
viability, T/C (second compound 0.0949 µM, first compound 1 µM): 28.7%
viability, T/C (second compound 0.0949 µM, first compound 3.16 µM): 22.5%
viability, T/C (second compound 0.0949 µM, first compound 10 µM): 15.1%
viability, T/C (second compound 0.3 µM, first compound 0.0316 µM): 18%
viability, T/C (second compound 0.3 µM, first compound 0.1 µM): 18.6%
viability, T/C (second compound 0.3 µM, first compound 0.316 µM): 20.5%
viability, T/C (second compound 0.3 µM, first compound 1 µM): 23.6%
viability, T/C (second compound 0.3 µM, first compound 3.16 µM): 26.8%
viability, T/C (second compound 0.3 µM, first compound 10 µM): 14.1%
